Experimental data published in patent US8940739B2, “Compound of a reverse-turn mimetic and a production method and use therefor” (JW Pharmaceutical Corporation, priority 2010, dated 2015).

How the values were obtained:
[1] = system: MV-4-11 (human, Acute Myeloid Leukemia cell line) cells; test: Cell growth inhibition assay, GI50 of MV-4-11; format: cell-based; conditions: Homo sapiens, MV4-11, 72 h, MV-4-11 cells
Method in brief: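 MV-4-11 AML cells (5×10^4/well, IMDM with 10% FBS) treated in duplicate with serially diluted compounds for 72 hours at 37 °C. Viability read as absorbance at 490 nm after CellTiter 96 Aqueous One (MTS) addition; GI50 calculated from the concentration-response.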

[2] = target: cDNA-expressed human hepatic CYP3A4 (Homo sapiens (Human), UniProt P08684); test: Measurement of CYP (IC50 of P450 CYP3A4), BFC substrate; format: in vitro ADME; conditions: 20 minutes
Method in brief: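 cDNA-expressed human CYP3A4 supersomes in 0.1M potassium phosphate pH 7.4 with 8.3 mM MgCl2, 1.67 mM EDTA and 0.25 mM NADPH; compounds in acetonitrile (<1% final). Reaction started with 30 µM BFC, 20 min at 37. 7-Hydroxy-4-trifluoromethyl-coumarin read by fluorescence (ex 409/em 530 nm).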

Sequence of cDNA-expressed human hepatic CYP3A4 (P08684 whole entry): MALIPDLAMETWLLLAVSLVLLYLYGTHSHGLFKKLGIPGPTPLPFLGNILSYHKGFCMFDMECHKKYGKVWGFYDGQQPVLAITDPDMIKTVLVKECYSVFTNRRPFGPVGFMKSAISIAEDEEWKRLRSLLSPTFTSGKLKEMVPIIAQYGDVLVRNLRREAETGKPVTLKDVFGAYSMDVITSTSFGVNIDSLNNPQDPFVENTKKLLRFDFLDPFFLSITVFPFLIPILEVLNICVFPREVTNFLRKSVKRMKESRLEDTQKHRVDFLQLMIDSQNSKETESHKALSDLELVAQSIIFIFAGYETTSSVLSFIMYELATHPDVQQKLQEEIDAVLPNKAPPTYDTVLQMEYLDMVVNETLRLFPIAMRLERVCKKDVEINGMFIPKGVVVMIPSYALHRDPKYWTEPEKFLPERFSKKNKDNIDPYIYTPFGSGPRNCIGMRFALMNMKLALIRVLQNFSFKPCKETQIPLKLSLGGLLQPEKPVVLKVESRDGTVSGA

Row | SMILES | GI50 [1] | IC50 [2]
1 | C=CCN1CC(=O)N2[C@@H](Cc3ccc(O)cc3)C(=O)N(Cc3cccc4c(C(=O)N5CCC(C(=O)OCC)CC5)cn(C)c34)C[C@@H]2N1C(=O)NCc1ccccc1 [Compound E-53] | 1.9 nM | 3860 nM
2 | C=CCN1CC(=O)N2C(CN(Cc3cccc4c(C(=O)Nc5ccc(N6CCN(C)CC6)nc5)cn(C)c34)C(=O)[C@@H]2Cc2ccc(O)cc2)N1C(=O)NCc1ccccc1 (stereo partly shown) [Compound G-41] | 1.3 nM | 7600 nM
3 | C=CCN1CC(=O)N2C(Cc3ccc(O)cc3)C(=O)N(Cc3cccc4c(C(=O)Nc5ccc(N6CCC(N7CCCCC7)CC6)nc5)cn(C)c34)CC2N1C(=O)NCc1ccccc1 (stereo not shown) [Compound G-55] | 1.3 nM | 2370 nM
4 | C=CCN1CC(=O)N2[C@@H](Cc3ccc(O)cc3)C(=O)N(Cc3cccc4c(C(=O)N5CCOCC5)cn(C)c34)C[C@@H]2N1C(=O)NCc1ccccc1 [Compound E-3] | 18.4 nM | 3900 nM
5 | C=CCN1CC(=O)N2[C@@H](Cc3ccc(O)cc3)C(=O)N(Cc3cccc4c(C(=O)Nc5ccc(OCCCN6CCCCC6)nc5)cn(C)c34)C[C@@H]2N1C(=O)NCc1ccccc1 [Compound G-31] | 2.7 nM | 7670 nM
6 | C=CCN1CC(=O)N2[C@@H](Cc3ccc(O)cc3)C(=O)N(Cc3cccc4c(-c5ccc(C(=O)Nc6cccc(C(N)=O)c6)cc5)cn(C)c34)C[C@@H]2N1C(=O)NCc1ccccc1 [Compound D-15] | 2.8 nM | 16000 nM
7 | C=CCN1CC(=O)N2[C@@H](Cc3ccc(O)cc3)C(=O)N(Cc3cccc4c(-c5ccc(NC(=O)c6ccc(N)cc6)cc5)cn(C)c34)C[C@@H]2N1C(=O)NCc1ccccc1 [Compound D-50] | 2 nM | > 25000 nM
8 | C=CCN1CC(=O)N2C(Cc3ccc(O)cc3)C(=O)N(Cc3cccc4c(C(=O)Nc5ccc(NCCN6CCCCC6)nc5)cn(C)c34)CC2N1C(=O)NCc1ccccc1 (stereo not shown) [Compound G-27] | 2 nM | 2530 nM
9 | C=CCN1CC(=O)N2[C@@H](Cc3ccc(O)cc3)C(=O)N(Cc3cccc4c(C(=O)NCCCOC)cn(C)c34)C[C@@H]2N1C(=O)NCc1ccccc1 [Compound F-6] | 11.9 nM | 3840 nM
10 | C=CCN1CC(=O)N2[C@@H](Cc3ccc(O)cc3)C(=O)N(Cc3cccc4c(-c5ccc(C(=O)Nc6ccc(N)cc6)cc5)cn(C)c34)C[C@@H]2N1C(=O)NCc1ccccc1 [Compound D-18] | 1.2 nM | 2420 nM
11 | C=CCN1CC(=O)N2[C@@H](Cc3ccc(O)cc3)C(=O)N(Cc3cccc4c(C(=O)Nc5ccc(N6CC(O)C6)nc5)cn(C)c34)C[C@@H]2N1C(=O)NCc1ccccc1 [Compound G-61] | 8.5 nM | 4870 nM
12 | C=CCN1CC(=O)N2[C@@H](Cc3ccc(O)cc3)C(=O)N(Cc3cccc4c(C(=O)N5CCN(CCOC)CC5)cn(C)c34)C[C@@H]2N1C(=O)NCc1ccccc1 [Compound E-10] | 10.8 nM | 9120 nM
13 | C=CCN1CC(=O)N2[C@@H](Cc3ccc(O)cc3)C(=O)N(Cc3cccc4c(-c5ccc(NC(=O)c6ccc(CN(CC)CC)cc6)cc5)cn(C)c34)C[C@@H]2N1C(=O)NCc1ccccc1 [Compound D-55] | 5.8 nM | 2260 nM
14 | C=CCN1CC(=O)N2[C@@H](Cc3ccc(O)cc3)C(=O)N(Cc3cccc4c(-c5ccc(C(=O)Nc6cccc(OC)c6)cc5)cn(C)c34)C[C@@H]2N1C(=O)NCc1ccccc1 [Compound D-21] | 6.9 nM | 6530 nM
15 | C=CCN1CC(=O)N2C(CN(Cc3cccc4c(C(=O)Nc5ccc(N6CCC7(CCN(CC)C7)C6)nc5)cn(C)c34)C(=O)[C@@H]2Cc2ccc(O)cc2)N1C(=O)NCc1ccccc1 (stereo partly shown) [Compound G-65] | 1.3 nM | 3910 nM
16 | C=CCN1CC(=O)N2[C@@H](Cc3ccc(O)cc3)C(=O)N(Cc3cccc4c(C(=O)Nc5ccc(N6CC(N7CCC(OC)CC7)C6)nc5)cn(C)c34)C[C@@H]2N1C(=O)NCc1ccccc1 [Compound G-63] | 1.5 nM | 2560 nM
17 | C=CCN1CC(=O)N2[C@@H](Cc3ccc(O)cc3)C(=O)N(Cc3cccc4c(-c5ccc(NC(=O)Nc6ncccn6)cc5)cn(C)c34)C[C@@H]2N1C(=O)NCc1ccccc1 [Compound D-82] | 16.8 nM | 8520 nM
18 | C=CCN1CC(=O)N2[C@@H](Cc3ccc(O)cc3)C(=O)N(Cc3cccc4c(-c5ccc(NC(=O)N6CCOCC6)cc5)cn(C)c34)C[C@@H]2N1C(=O)NCc1ccccc1 [Compound D-59] | 1.2 nM | 2190 nM
19 | C=CCN1CC(=O)N2[C@@H](Cc3ccc(O)cc3)C(=O)N(Cc3cccc4c(-c5ccc(NC(=O)Nc6cnccn6)cc5)cn(C)c34)C[C@@H]2N1C(=O)NCc1ccccc1 [Compound D-83] | 13.8 nM | 4610 nM
20 | C=CCN1CC(=O)N2C(CN(Cc3cccc4c(-c5ccc(S(C)(=O)=O)cc5)cn(C)c34)C(=O)[C@@H]2Cc2ccc(O)cc2)N1C(=O)NCc1ccccc1 (stereo partly shown) [Compound H-3] | 2.2 nM | 10000 nM
